23 compounds from US10934310B2, “Inhibitors of Bruton's tyrosine kinase and method of their use” (JANSSEN PHARMACEUTICA NV, priority 2015, dated 2021) can be followed below.

Molecules are shown by their SMILES. A value given as a limit tells only on which side of the number the result lay.

unphosphorylated-BTK kinase domain (UP-BTK), GST-tagged human BTK (389-659aa), sequence (Q06187 389-659): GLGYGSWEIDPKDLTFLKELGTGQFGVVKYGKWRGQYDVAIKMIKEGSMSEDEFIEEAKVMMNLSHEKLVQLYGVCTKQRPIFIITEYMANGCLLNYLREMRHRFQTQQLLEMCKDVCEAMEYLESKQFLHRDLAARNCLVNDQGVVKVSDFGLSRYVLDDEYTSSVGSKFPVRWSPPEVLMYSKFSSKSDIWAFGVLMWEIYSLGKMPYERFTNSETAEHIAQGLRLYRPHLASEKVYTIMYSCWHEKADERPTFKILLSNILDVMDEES

The first experiment addresses unphosphorylated-BTK kinase domain (UP-BTK), GST-tagged human BTK (389-659aa) (Homo sapiens (Human), UniProt Q06187). Description: BTK Kinase Lanthascreen Binding Assay. The note with it: compound, 50 nM Tracer 236, 2 nM anti-GST antibody, 60 minutes; pIC50 = negative log of the IC50 in molar. On the procedure:
BTK Kinase Lanthascreen Binding Assay:
A BTK kinase lanthascreen binding assay monitors compound binding to unphosphorylated-BTK kinase domain (UP-BTK), by competing with a fluorescent labeled tracer. […] Data were analyzed using Xlfit™ version 5.3 from ID Business Solutions (Guildford), Microsoft Excel add-in. pIC50 refers to the negative log of the IC50 in molar.
In general terms: Time-resolved FRET reads energy transfer from a long-lived donor to a nearby acceptor.
Turning to `C=CC(=O)N[C@H]1CCCC[C@H]1NC(=O)c1sc2nccc3c2c1NC(=O)N3c1ccc(OC(C)C)nc1C` (single isomer, unassigned) [Example 238, N-((1R,2S)-2-Acrylamidocyclohexyl)-5-(*R)-(6-isopropoxy-2-methylpyridin-3-yl)-4-oxo-4,5-dihydro-3H-1-thia-3,5,8-triazaacenaphthylene-2-carboxamide], the “BTK_I_binding pIC50” value is 6.95. As for `Cc1cc(Oc2ccccc2)ccc1N1C(=O)Nc2c(C(=O)N[C@@H]3CC[C@H](N)C3)sc3nccc1c23` (single isomer, unassigned) [Example 240, N-((1R,3S)-3-Aminocyclopentyl)-5-(*S)-(2-methyl-4-phenoxyphenyl)-4-oxo-4,5-dihydro-3H-1-thia-3,5,8-triazaacenaphthylene-2-carboxamide], the “BTK_I_binding pIC50” value is listed as 6.72. For the compound `CC(=O)N[C@H]1CC[C@H](NC(=O)c2sc3nccc4c3c2NC(=O)N4c2ccc(Oc3ccccc3)cc2C)C1` (single isomer, unassigned) [Example 241, N-((1S,3S)-3-Acetamidocyclopentyl)-5-(*S)-(2-methyl-4-phenoxyphenyl)-4-oxo-4,5-dihydro-3H-1-thia-3,5,8-triazaacenaphthylene-2-carboxamide], the “BTK_I_binding pIC50” value turned out to be 7.26. As for `C=CC(=O)N[C@H]1CCCC[C@H]1NC(=O)c1sc2nccc3c2c1NC(=O)N3c1ccc(OC2CCC2)nc1C` (single isomer, unassigned) [Example 242, N-((1R,2S)-2-Acrylamidocyclohexyl)-5-(*R)-(6-cyclobutoxy-2-methylpyridin-3-yl)-4-oxo-4,5-dihydro-3H-1-thia-3,5,8-triazaacenaphthylene-2-carboxamide], the “BTK_I_binding pIC50” value is given as 7.04. Still for that read-out and setting: next, `CC(=O)N[C@H]1CCC[C@H](NC(=O)c2sc3nccc4c3c2NC(=O)N4c2ccc(Oc3ccccc3)cc2C)C1` (single isomer, unassigned) [Example 243, N-((1S,3S)-3-Acetamidocyclohexyl)-5-(*S)-(2-methyl-4-phenoxyphenyl)-4-oxo-4,5-dihydro-3H-1-thia-3,5,8-triazaacenaphthylene-2-carboxamide]: 6.85. The same measure, in the same setting: next, `CC(=O)N[C@H]1CC[C@@H](NC(=O)c2sc3nccc4c3c2NC(=O)N4c2ccc(Oc3ccccc3)cc2C)C1` (single isomer, unassigned) [Example 244, N-((1R,3S)-3-Acetamidocyclopentyl)-5-(*S)-(2-methyl-4-phenoxyphenyl)-4-oxo-4,5-dihydro-3H-1-thia-3,5,8-triazaacenaphthylene-2-carboxamide]: 6.66. Regarding `Cc1cc(Oc2ccccc2)ccc1N1C(=O)Nc2c(C(=O)N[C@H]3CCC[C@H](N)C3)sc3nccc1c23` (single isomer, unassigned) [Example 247, N-((1S,3S)-3-Aminocyclohexyl)-5-(*S)-(2-methyl-4-phenoxyphenyl)-4-oxo-4,5-dihydro-3H-1-thia-3,5,8-triazaacenaphthylene-2-carboxamide], the “BTK_I_binding pIC50” value is given as 6.66. The same measure, in the same setting: next, `Cc1cc(Oc2ccccc2)ccc1N1C(=O)Nc2c(C(=O)N[C@H]3CCC[C@H](NC(=O)CN)C3)sc3nccc1c23` (single isomer, unassigned) [Example 251, N-((1R,3S)-3-(2-Aminoacetamido)cyclohexyl)-5-(*S)-(2-methyl-4-phenoxyphenyl)-4-oxo-4,5-dihydro-3H-1-thia-3,5,8-triazaacenaphthylene-2-carboxamide]: 6.71; `Cc1cc(Oc2ccccc2)ccc1N1C(=O)Nc2c(C(=O)N[C@H]3CCC[C@H](NC(=O)CN(C)C)C3)sc3nccc1c23` (single isomer, unassigned) [Example 252, N-((1R,3S)-3-(2-(Dimethylamino)acetamido)cyclohexyl)-5-(*S)-(2-methyl-4-phenoxyphenyl)-4-oxo-4,5-dihydro-3H-1-thia-3,5,8-triazaacenaphthylene-2-carboxamide]: 6.63; `CC(=O)N[C@H]1CCC[C@H](NC(=O)c2sc3nccc4c3c2NC(=O)N4c2ccc(Oc3ccccc3)cc2C)C1` (single isomer, unassigned) [Example 253, N-((1R,3S)-3-Acetamidocyclohexyl)-5-(*S)-(2-methyl-4-phenoxyphenyl)-4-oxo-4,5-dihydro-3H-1-thia-3,5,8-triazaacenaphthylene-2-carboxamide]: 6.63. For the compound `Cc1nc(Oc2ccccc2)ncc1N1C(=O)Nc2c(C(=O)N[C@@H]3CCC[C@@H]3N)sc3nccc1c23` (single isomer, unassigned) [Example 254, N-((1R,2S)-2-aminocyclopentyl)-5-(*)-(4-methyl-2-phenoxypyrimidin-5-yl)-4-oxo-4,5-dihydro-3H-1-thia-3,5,8-triazaacenaphthylene-2-carboxamide], the “BTK_I_binding pIC50” value amounted to 6.55.

For `Cc1cc(Oc2ccccc2)ncc1N1C(=O)Nc2c(C(=O)N[C@@H]3CCCC[C@H]3N)sc3nccc1c23` (single isomer, unassigned) [Example 255, N-((1R,2R)-2-Aminocyclohexyl)-5-(*S)-(4-methyl-6-phenoxypyridin-3-yl)-4-oxo-4,5-dihydro-3H-1-thia-3,5,8-triazaacenaphthylene-2-carboxamide], the “BTK_I_binding pIC50” value turned out to be 6.51.

Take `Cc1nc(Oc2ccccc2)ncc1N1C(=O)Nc2c(C(=O)N[C@@H]3CCC[C@H]3N)sc3nccc1c23` (single isomer, unassigned) [Example 256, N-((1R,2R)-2-Aminocyclopentyl)-5-(*S)-(4-methyl-2-phenoxypyrimidin-5-yl)-4-oxo-4,5-dihydro-3H-1-thia-3,5,8-triazaacenaphthylene-2-carboxamide]: the “BTK_I_binding pIC50” value worked out at 6.48. On to `Cc1cc(Oc2ccccc2)ccc1N1C(=O)Nc2c(C(=O)N[C@H]3CC[C@H](N)C3)sc3nccc1c23` (single isomer, unassigned) [Example 259, N-((1S,3S)-3-Aminocyclopentyl)-5-(*S)-(2-methyl-4-phenoxyphenyl)-4-oxo-4,5-dihydro-3H-1-thia-3,5,8-triazaacenaphthylene-2-carboxamide], for which the “BTK_I_binding pIC50” value is reported as 6.45. Take `Cc1cc(Oc2ccccc2)ccc1N1C(=O)Nc2c(C(=O)N[C@@H]3CCC[C@H](N)C3)sc3nccc1c23` (single isomer, unassigned) [Example 261, N-((1R,3S)-3-Aminocyclohexyl)-5-(*S)-(2-methyl-4-phenoxyphenyl)-4-oxo-4,5-dihydro-3H-1-thia-3,5,8-triazaacenaphthylene-2-carboxamide]: the “BTK_I_binding pIC50” value is recorded as 6.42. Regarding `Cc1cc(OC(C)C)ccc1N1C(=O)Nc2c(C(=O)N[C@@H]3CCC[C@@H]3N)sc3nccc1c23` (single isomer, unassigned) [Example 262, N-((1R,2S)-2-Aminocyclopentyl)-5-(*R)-(4-isopropoxy-2-methylphenyl)-4-oxo-4,5-dihydro-3H-1-thia-3,5,8-triazaacenaphthylene-2-carboxamide], the “BTK_I_binding pIC50” value is listed as 6.39.

For `C=CC(=O)N[C@@H]1CCCC[C@H]1NC(=O)c1sc2nccc3c2c1NC(=O)N3c1ccc(OC(C)C)cc1C` (single isomer, unassigned) [Example 264, N-((1R,2R)-2-Acrylamidocyclohexyl)-5-(*R)-(4-isopropoxy-2-methylphenyl)-4-oxo-4,5-dihydro-3H-1-thia-3,5,8-triazaacenaphthylene-2-carboxamide], the “BTK_I_binding pIC50” value is 6.26. For the compound `C=CC(=O)N[C@H]1CCCC[C@H]1NC(=O)c1sc2nccc3c2c1NC(=O)N3c1cnc(OC2CCC2)cc1C` (single isomer, unassigned) [Example 266, N-((1R,2S)-2-Acrylamidocyclohexyl)-5-(*R)-(6-cyclobutoxy-4-methylpyridin-3-yl)-4-oxo-4,5-dihydro-3H-1-thia-3,5,8-triazaacenaphthylene-2-carboxamide], the “BTK_I_binding pIC50” value is given as 6.21.

Staying with this experiment, now noted: read-out: BTK_I_binding pIC50 (converted).
Turning to `C=CC(=O)N[C@H]1CCCC[C@@H]1NC(=O)c1sc2nccc3c2c1NC(=O)N3c1ccc(OC(C)C)cc1C` (single isomer, unassigned) [Example 272, N-((1S,2S)-2-Acrylamidocyclohexyl)-5-(*R)-(4-isopropoxy-2-methylphenyl)-4-oxo-4,5-dihydro-3H-1-thia-3,5,8-triazaacenaphthylene-2-carboxamide], the IC50 was above 1 µM. On to `C=CC(=O)N[C@@H]1CCCC[C@H]1NC(=O)c1sc2nccc3c2c1NC(=O)N3c1ccc(OC(C)C)cc1C` (single isomer, unassigned) [Example 273, N-((1R,2R)-2-Acrylamidocyclohexyl)-5-(*S)-(4-isopropoxy-2-methylphenyl)-4-oxo-4,5-dihydro-3H-1-thia-3,5,8-triazaacenaphthylene-2-carboxamide], for which the IC50 is above 1 µM. On the same count and under the same terms, under `C=CC(=O)N[C@H]1CCC[C@H](NC(=O)c2sc3nccc4c3c2NC(=O)N4c2ccc(OC(C)C)cc2C)C1` (single isomer, unassigned) [Example 274, N-((1S, S)-3-Acrylamidocyclohexyl)-5-(*R)-(4-isopropoxy-2-methylphenyl)-4-oxo-4,5-dihydro-3H-1-thia-3,5,8-triazaacenaphthylene-2-carboxamide] stands above 1 µM; under `C=CC(=O)N[C@H]1CCC[C@@H](NC(=O)c2sc3nccc4c3c2NC(=O)N4c2ccc(OC(C)C)cc2C)C1` (single isomer, unassigned) [Example 275, N-((1R,3S)-3-Acrylamidocyclohexyl)-5-(*R)-(4-isopropoxy-2-methylphenyl)-4-oxo-4,5-dihydro-3H-1-thia-3,5,8-triazaacenaphthylene-2-carboxamide], above 1 µM; under `C=CC(=O)N[C@H]1CC[C@@H](NC(=O)c2sc3nccc4c3c2NC(=O)N4c2ccc(OC(C)C)cc2C)C1` (single isomer, unassigned) [Example 276, N-((1R,3S)-3-Acrylamidocyclopentyl)-5-(*R)-(4-isopropoxy-2-methylphenyl)-4-oxo-4,5-dihydro-3H-1-thia-3,5,8-triazaacenaphthylene-2-carboxamide], above 1 µM.
